Test results published in ChEMBL document CHEMBL3856231 (J Med Chem, 2016).
Activity calls are given as the source filed them. The rule behind the calls is not given here.

Experiments:
[1] = Clearance in CD-1 mouse at 1 mg/kg, iv by LC/MS/MS analysis; type: ADME, organism-based; conditions: in vivo
[2] = Clearance in cynomolgus monkey at 1 mg/kg, iv by LC/MS/MS analysis; type: ADME, organism-based, Macaca fascicularis; conditions: in vivo
[3] = Half life in CD-1 mouse liver microsomes by LC/MS/MS analysis; type: ADME
[4] = biological target: Voltage-gated inwardly rectifying potassium channel KCNH2 (Homo sapiens, UniProt Q12809); test: Inhibition of human ERG
Cytochrome P450 2C19 = Cytochrome P450 2C19 (Homo sapiens, UniProt P33261); test: Inhibition of CYP2C19 in human liver microsomes using S-mephenytoin as substrate in presence of NADPH by LC/MS/MS analysis; type: ADME
Cytochrome P450 2D6 = Cytochrome P450 2D6 (Homo sapiens, UniProt P10635); test: Inhibition of CYP2D6 in human liver microsomes using dextromethorphan as substrate in presence of NADPH by LC/MS/MS analysis; type: ADME
[5] = Half life in cynomolgus monkey liver microsomes by LC/MS/MS analysis; type: ADME, Macaca fascicularis
[6] = Oral bioavailability in Sprague-Dawley rat at 5 mg/kg by LC/MS/MS analysis; type: ADME, organism-based; conditions: in vivo
[7] = AUC (0 to infinity) in Sprague-Dawley rat at 5 mg/kg, po by LC/MS/MS analysis; type: ADME, organism-based; parameters: dose 5 mg/kg, time infinity, route oral; conditions: in vivo
[8] = Apparent permeability from apical to basolateral side in human Caco2 cells; type: ADME, cell-based; conditions: Caco-2
[9] = Half life in CD-1 mouse at 1 mg/kg, iv by LC/MS/MS analysis; type: ADME, organism-based; conditions: in vivo
[10] = Half life in Sprague-Dawley rat at 1 mg/kg, iv by LC/MS/MS analysis; type: ADME, organism-based; conditions: in vivo
[11] = AUC (0 to infinity) in CD-1 mouse at 1 mg/kg, iv by LC/MS/MS analysis; type: ADME, organism-based; parameters: dose 1 mg/kg, time infinity, route intravenous; conditions: in vivo
[12] = Volume of distribution in CD-1 mouse at 1 mg/kg, iv by LC/MS/MS analysis; type: ADME, organism-based; conditions: in vivo
[13] = Volume of distribution in cynomolgus monkey at 1 mg/kg, iv by LC/MS/MS analysis; type: ADME, organism-based, Macaca fascicularis; conditions: in vivo
[14] = Tmax in cynomolgus monkey at 10 mg/kg, po by LC/MS/MS analysis; type: ADME, organism-based, Macaca fascicularis; conditions: in vivo
[15] = AUC (0 to infinity) in cynomolgus monkey at 10 mg/kg, po by LC/MS/MS analysis; type: ADME, organism-based, Macaca fascicularis; parameters: dose 10 mg/kg, route oral, time infinity; conditions: in vivo
[16] = Oral bioavailability in cynomolgus monkey at 10 mg/kg by LC/MS/MS analysis; type: ADME, organism-based, Macaca fascicularis; conditions: in vivo
[17] = Ratio of total drug level in Sprague-Dawley rat brain to plasma at 30 mg/kg, po; type: ADME, organism-based; conditions: brain and plasma, read-out: BPR
[18] = Cmax in Sprague-Dawley rat plasma at 30 mg/kg, po by LC/MS/MS analysis; type: ADME, organism-based; parameters: dose 30 mg/kg, route oral
[19] = AUC (0 to 48 hrs) in Sprague-Dawley rat brain at 30 mg/kg, po by LC/MS/MS analysis; type: ADME, organism-based; parameters: dose 30 mg/kg, time < 48 hr, route oral
[20] = AUC (0 to 48 hrs) in Sprague-Dawley rat plasma at 30 mg/kg, po by LC/MS/MS analysis; type: ADME, organism-based; parameters: time < 48 hr, dose 30 mg/kg, route oral
KARPAS-299 = test: Induction of apoptosis assessed as caspase 3/7 activation in human KARPAS299 expressing NPM-ALK; type: functional
[21] = (§1) Cytotoxicity against human NCI-H2228 cells expressing EML4-ALK assessed as cell growth inhibition; type: functional, cell-based
NCI-H2228 [22] = test: as §1; type: functional, cell-based
Mus musculus [23] = test: Inhibition of NPM-ALK phosphorylation in human SUP-M2 cells xenografted in mouse at 30 mg/kg, po administered as single dose measured upto 12 hrs; type: functional, organism-based
Mus musculus [24] = test: Inhibition of NPM-ALK phosphorylation in human SUP-M2 cells xenografted in mouse at 30 mg/kg, po administered as single dose measured upto 24 hrs; type: functional
[25] = Drug level in plasma of NPM-ALK expressing human SUP-M2 cells xenografted mouse at 30 mg/kg, po administered as single dose measured at 2 hrs by LC-MS/MS analysis; type: ADME, organism-based
[26] = Drug level in tumor of NPM-ALK expressing human SUP-M2 cells xenografted mouse at 30 mg/kg, po administered as single dose measured at 12 hrs by LC-MS/MS analysis; type: ADME, organism-based, Neoplasm; conditions: read-out: Drug uptake
[27] = Drug level in tumor of NPM-ALK expressing human SUP-M2 cells xenografted mouse at 30 mg/kg, po administered as single dose measured at 24 hrs by LC-MS/MS analysis; type: ADME, organism-based, Neoplasm; conditions: read-out: Drug uptake
SUP-M2 [28] = test: Antitumor activity against human SUP-M2 cells expressing NPM-ALK xenografted in SCID-Beige mouse assessed as tumor regression at 30 mg/kg, po qd administered for 12 days measured during compound dosing; type: functional, organism-based
SUP-M2 [29] = test: Antitumor activity against human SUP-M2 cells expressing NPM-ALK xenografted in SCID-Beige mouse assessed as tumor ablation at 55 mg/kg, po qd administered for 12 days measured during compound dosing; type: functional, organism-based
NCI-H2228 [30] = test: Antitumor activity against human NCI-H2228 cells expressing EML4-ALK xenografted in SCID-Beige mouse assessed as reduction in tumor volume at 30 mg/kg, po bid administered for 11 days measured during compound dosing; type: functional, organism-based
NCI-H2228 [31] = test: Antitumor activity against human NCI-H2228 cells expressing EML4-ALK xenografted in SCID-Beige mouse assessed as reduction in tumor volume at 55 mg/kg, po bid administered for 11 days measured during compound dosing; type: functional, organism-based
Mus musculus [32] = test: Inhibition of FAK phosphorylation in human CWR22 cells xenografted in Nu/Nu mouse at 55 mg/kg, po administered as single dose by immunoblot analysis; type: functional, organism-based; conditions: TDE = time-dependent effect
[33] = Drug level in tumor of FAK expressing human CWR22 cells xenografted Nu/Nu mouse at 55 mg/kg, po administered as single dose measured at 2 hrs by LC-MS/MS analysis; type: ADME, organism-based, Neoplasm; conditions: read-out: Drug uptake
[34] = Drug level in plasma of FAK expressing human CWR22 cells xenografted Nu/Nu mouse at 55 mg/kg, po administered as single dose measured at 6 hrs by LC-MS/MS analysis; type: ADME, organism-based
[35] = Drug level in tumor of FAK expressing human CWR22 cells xenografted Nu/Nu mouse at 55 mg/kg, po administered as single dose measured at 6 hrs by LC-MS/MS analysis; type: ADME, organism-based, Neoplasm; conditions: read-out: Drug uptake
[36] = Drug level in tumor of FAK expressing human CWR22 cells xenografted Nu/Nu mouse at 55 mg/kg, po administered as single dose measured at 12 hrs by LC-MS/MS analysis; type: ADME, organism-based, Neoplasm; conditions: read-out: Drug uptake
[37] = Drug level in plasma of FAK expressing human CWR22 cells xenografted Nu/Nu mouse at 55 mg/kg, po administered as single dose measured at 24 hrs by LC-MS/MS analysis; type: ADME, organism-based
[38] = Antitumor activity against human HCC827 cells expressing activated FAK xenografted in SCID-Beige mouse assessed as incidence of partial tumor regression at 55 mg/kg, po bid administered for 28 days; type: functional
IBC = test: Antitumor activity against human IBC cells xenografted in SCID mouse; type: functional
[39] = biological target: ALK tyrosine kinase receptor (Homo sapiens, UniProt Q9UM73); conditions: 1 uM
Chain of ALK tyrosine kinase receptor (Q9UM73 19-1620 limits assumed): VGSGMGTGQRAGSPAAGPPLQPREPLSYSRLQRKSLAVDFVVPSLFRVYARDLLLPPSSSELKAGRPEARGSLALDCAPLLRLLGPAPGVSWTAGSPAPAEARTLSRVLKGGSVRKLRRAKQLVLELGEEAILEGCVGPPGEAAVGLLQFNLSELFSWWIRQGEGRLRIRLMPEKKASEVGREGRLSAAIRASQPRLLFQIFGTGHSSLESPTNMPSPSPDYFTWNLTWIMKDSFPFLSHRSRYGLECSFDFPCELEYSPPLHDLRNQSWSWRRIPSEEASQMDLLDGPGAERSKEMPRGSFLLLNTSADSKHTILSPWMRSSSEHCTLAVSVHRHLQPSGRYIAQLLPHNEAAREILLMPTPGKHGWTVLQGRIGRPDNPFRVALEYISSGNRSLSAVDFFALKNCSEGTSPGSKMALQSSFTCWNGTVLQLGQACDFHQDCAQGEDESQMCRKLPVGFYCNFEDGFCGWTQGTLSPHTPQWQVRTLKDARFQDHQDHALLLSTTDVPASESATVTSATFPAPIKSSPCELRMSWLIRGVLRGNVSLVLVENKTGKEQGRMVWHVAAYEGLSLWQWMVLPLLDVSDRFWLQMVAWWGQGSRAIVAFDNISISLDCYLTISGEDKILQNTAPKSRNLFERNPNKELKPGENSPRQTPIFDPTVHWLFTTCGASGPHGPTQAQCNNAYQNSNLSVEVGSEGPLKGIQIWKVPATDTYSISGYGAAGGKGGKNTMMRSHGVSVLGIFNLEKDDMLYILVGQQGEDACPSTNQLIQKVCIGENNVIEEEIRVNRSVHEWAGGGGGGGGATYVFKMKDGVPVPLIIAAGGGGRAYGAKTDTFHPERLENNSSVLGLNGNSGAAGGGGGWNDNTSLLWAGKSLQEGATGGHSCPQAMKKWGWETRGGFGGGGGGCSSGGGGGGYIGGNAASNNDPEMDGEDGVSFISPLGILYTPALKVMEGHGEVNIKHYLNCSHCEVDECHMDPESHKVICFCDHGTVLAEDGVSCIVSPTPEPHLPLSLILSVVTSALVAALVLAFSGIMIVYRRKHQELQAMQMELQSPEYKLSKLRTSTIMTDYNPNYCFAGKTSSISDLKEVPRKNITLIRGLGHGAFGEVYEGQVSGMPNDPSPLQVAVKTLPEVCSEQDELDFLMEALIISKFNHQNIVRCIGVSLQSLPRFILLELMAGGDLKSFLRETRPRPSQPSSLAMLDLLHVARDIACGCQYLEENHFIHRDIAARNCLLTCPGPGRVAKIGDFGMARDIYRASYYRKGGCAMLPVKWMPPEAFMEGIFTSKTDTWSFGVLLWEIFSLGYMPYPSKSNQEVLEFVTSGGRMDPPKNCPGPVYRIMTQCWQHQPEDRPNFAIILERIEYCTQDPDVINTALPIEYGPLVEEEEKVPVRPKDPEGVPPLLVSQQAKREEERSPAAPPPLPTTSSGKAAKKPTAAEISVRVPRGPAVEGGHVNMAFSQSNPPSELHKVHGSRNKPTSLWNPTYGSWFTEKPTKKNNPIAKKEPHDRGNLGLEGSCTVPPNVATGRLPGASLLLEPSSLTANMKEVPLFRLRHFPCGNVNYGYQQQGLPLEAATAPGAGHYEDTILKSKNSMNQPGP
Description: Inhibition of human ALK (1088 to 1409 residues) expressed in mammalian system at 1 uM by KINOMEscan assay

Chain of Voltage-gated inwardly rectifying potassium channel KCNH2 (Q12809 whole entry): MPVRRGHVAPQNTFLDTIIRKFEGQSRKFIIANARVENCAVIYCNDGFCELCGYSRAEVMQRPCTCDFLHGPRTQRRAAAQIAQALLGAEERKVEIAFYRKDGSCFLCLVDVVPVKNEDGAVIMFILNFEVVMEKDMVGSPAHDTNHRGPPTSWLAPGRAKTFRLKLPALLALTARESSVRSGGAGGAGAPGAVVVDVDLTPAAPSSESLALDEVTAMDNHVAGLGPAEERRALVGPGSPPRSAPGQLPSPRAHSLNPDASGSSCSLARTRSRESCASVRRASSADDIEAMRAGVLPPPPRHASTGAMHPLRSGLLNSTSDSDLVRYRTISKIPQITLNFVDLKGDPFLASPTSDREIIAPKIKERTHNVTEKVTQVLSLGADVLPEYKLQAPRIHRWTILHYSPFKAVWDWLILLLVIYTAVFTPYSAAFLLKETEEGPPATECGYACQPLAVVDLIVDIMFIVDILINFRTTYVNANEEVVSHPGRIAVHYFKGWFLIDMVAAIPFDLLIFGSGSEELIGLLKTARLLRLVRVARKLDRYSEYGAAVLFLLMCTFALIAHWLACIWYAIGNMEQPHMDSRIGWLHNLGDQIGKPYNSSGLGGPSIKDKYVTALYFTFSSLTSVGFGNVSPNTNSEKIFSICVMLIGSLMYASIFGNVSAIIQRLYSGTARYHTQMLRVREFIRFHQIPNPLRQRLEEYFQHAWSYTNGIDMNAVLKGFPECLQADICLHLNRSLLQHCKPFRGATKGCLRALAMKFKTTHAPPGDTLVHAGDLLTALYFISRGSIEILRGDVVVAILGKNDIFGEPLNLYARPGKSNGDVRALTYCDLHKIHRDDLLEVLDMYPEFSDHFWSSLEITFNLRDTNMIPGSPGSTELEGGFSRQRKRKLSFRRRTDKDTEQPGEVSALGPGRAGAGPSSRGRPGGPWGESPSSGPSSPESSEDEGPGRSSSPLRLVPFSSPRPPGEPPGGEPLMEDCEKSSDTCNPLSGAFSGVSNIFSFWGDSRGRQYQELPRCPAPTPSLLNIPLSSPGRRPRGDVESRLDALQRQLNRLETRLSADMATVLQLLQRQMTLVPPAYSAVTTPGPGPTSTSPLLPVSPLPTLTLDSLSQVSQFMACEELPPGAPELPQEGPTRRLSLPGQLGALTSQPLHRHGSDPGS
Chain of Cytochrome P450 2D6 (P10635 whole entry): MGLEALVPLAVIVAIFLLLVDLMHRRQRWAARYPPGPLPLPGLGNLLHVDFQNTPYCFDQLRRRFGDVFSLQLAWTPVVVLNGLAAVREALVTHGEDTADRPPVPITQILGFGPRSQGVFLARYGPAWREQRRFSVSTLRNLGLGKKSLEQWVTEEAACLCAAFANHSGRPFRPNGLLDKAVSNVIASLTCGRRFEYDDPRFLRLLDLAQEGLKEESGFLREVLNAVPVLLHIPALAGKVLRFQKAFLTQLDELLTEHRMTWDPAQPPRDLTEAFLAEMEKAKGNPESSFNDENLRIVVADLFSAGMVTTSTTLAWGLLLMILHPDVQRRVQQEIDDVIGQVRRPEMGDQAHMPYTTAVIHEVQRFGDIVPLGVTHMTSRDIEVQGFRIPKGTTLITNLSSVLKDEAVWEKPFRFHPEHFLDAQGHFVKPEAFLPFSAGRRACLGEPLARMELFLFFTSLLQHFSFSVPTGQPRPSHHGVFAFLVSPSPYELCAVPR
Chain of Cytochrome P450 2C19 (P33261 whole entry): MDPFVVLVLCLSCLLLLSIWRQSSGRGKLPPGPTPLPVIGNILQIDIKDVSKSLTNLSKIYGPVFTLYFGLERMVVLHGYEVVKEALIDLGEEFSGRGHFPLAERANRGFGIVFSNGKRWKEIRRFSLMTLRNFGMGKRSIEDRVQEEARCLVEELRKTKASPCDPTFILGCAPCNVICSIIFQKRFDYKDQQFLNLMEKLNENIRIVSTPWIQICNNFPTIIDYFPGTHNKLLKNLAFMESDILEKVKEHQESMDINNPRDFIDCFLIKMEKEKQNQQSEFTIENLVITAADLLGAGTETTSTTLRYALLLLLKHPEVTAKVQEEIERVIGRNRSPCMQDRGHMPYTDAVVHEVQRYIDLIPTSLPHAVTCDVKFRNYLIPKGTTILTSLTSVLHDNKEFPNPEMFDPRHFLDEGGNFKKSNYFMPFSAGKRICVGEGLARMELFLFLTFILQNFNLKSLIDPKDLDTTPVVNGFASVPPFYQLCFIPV

CNC(=O)c1ccccc1Nc1nc(Nc2ccc3c(c2OC)CCC[C@H](N2CCN(CCO)CC2)C3)ncc1Cl [CEP-37440]
clearance [1]: 10 mL/min/kg | clearance [2]: 30 mL/min/kg | half-life [3]: 0.667 h | IC50 [4]: > 10 µM | IC50 (Cytochrome P450 2C19): > 5.6 µM | IC50 (Cytochrome P450 2D6): > 5.6 µM | half-life [5]: 0.35 h | bioavailability [6]: 42% | AUC(0-inf) [7]: 8360 ng·h/mL | Papp A→B [8]: > 1 ×10⁻⁶ cm/s | half-life [9]: 3 h | half-life [10]: 2 h | AUC(0-inf) [11]: 1610 ng·h/mL | Vd [12]: 2.7 L/kg | Vd [13]: 13.2 L/kg | Tmax [14]: 6 h | AUC(0-inf) [15]: 2760 ng·h/mL | bioavailability [16]: 50% | Kp [17]: 1.5 to 2 | Cmax [18]: 2120 ng/g | AUC(0-t) at 48 h [19]: 61600 ng·h/mL | AUC(0-t) at 48 h [20]: 31500 ng·h/mL | Activity (KARPAS-299): Active | IC50 [21]: 2.9 µM | growth inhibition (GI) (NCI-H2228 [22]): Dose-dependent effect | inhibition (Mus musculus [23]): Active | inhibition in vivo at 30 mg/kg (Mus musculus [24]): > 85% | concentration at 2 h [25]: 4740 ng/mL | concentration at 12 h [26]: 8580 ng/g | concentration at 24 h [27]: 8200 ng/g | Activity (SUP-M2 [28]): Active | Activity (SUP-M2 [29]): Active | Activity (NCI-H2228 [30]): Active | Activity (NCI-H2228 [31]): Active | inhibition (Mus musculus [32]): Tde | concentration at 2 h [33]: 6070 ng/g | concentration at 6 h [34]: 3790 ng/mL | concentration at 6 h [35]: 8680 ng/g | concentration at 12 h [36]: 3810 ng/g | concentration at 24 h [37]: 1190 ng/mL | Activity [38]: 60% | Activity (IBC): Dose-dependent effect | inhibition [39]: > 90%
